One assay has as its system α1 receptors. Briefly: Anti-α1 action: norepinephrine-induced tonic contraction of isolated thoracic aorta. The conditions noted are these: tonic contraction by 10^−5 M norepinephrine taken as 100%, guinea pig thoracic aorta. The method, then:
The thoracic aorta of each Hartley male guinea pig (body weight: 300-500 g) was excised. A preparation cut in a helical form was suspended under 1 g load in a Magnus cylinder filled with the Tyrode solution which had been aerated with a gas mixture of 95% O2 and 5% CO2 and maintained at 37° C. Using an isometric transducer (“TB-612J”, manufactured by Nihon Kohden Corporation) and a pressure preamplifier (“AP-620G”, manufactured by Nihon Kohden Corporation), variations in tension were measured. The isometric tensions were recorded on a thermal pen-writing recorder (“WT-647G”, manufactured by Nihon Kohden Corporation). Taking the tonic contraction induced by 10^−5 M norepinephrine (NE) as 100%, the percent contractions upon addition of each test drug at 10^−8 M and 10^−7 M were determined and recorded as α1 action.

For the next assay, the system named is serotonin-2 receptors. Briefly: Anti-serotonin (5-HT) action: 5-HT-induced contraction of isolated superior mesenteric artery. The following applies: contraction by 10^−5 M 5-HT taken as 100%, guinea pig superior mesenteric artery. The method, then: (2) Anti-serotonin (5-HT) Action
A preparation cut in a helical form was suspended under resting tension of 0.3 g in a Magnus cylinder filled with the Tyrode solution which had been aerated with a gas mixture of 95% O2 and 5% CO2 and maintained at 37° C. Using an isometric transducer (“UL-10”, manufactured by SHINKOH K.K.) and a pressure preamplifier (“DSA-605A”, manufactured by SHINKOH K.K.), variations in tension were measured. The isometric tensions were recorded on a pen-writing recorder (“VP-6537A”, manufactured by NATIONAL K.K.). Taking the contraction induced by 10^−5 M serotonin (5-HT) as 100%, the percent contractions by 10^−5 M 5-HT in the presence of each test drug at 10^−7 M and 10^−6 M were determined as anti-5-HT action.

Take `CN1CC(=O)c2c(ccn2CCCCN2CCC(C(=O)c3ccc(F)cc3)CC2)S1(=O)=O` [Compound 22, 5-[4-[4-(4-fluorobenzoyl)piperidino]butyl]-2-methyl-2,3,4,5-tetrahydropyrrolo[2,3-e][1,2]thiazin-4-one 1,1-dioxide]: the “Anti α1 action (% of Control)” value in the assay with α1 receptors (test drug 10^−7 M) is given as 43.2 % of Control; with α1 receptors (test drug 10^−8 M), 66.6 % of Control. In addition, the “Anti 5-HT action (% of Control)” value in the assay on serotonin-2 receptors (test drug 10^−6 M) was 41.1 % of Control; in the assay on serotonin-2 receptors (test drug 10^−7 M) it was 80.4 % of Control.
As for `CN1CC(=NO)c2c(ccn2CCCCN2CCC(C(=O)c3ccc(F)cc3)CC2)S1(=O)=O` [Compound 28, 5-[4-[4-(4-fluorobenzoyl)piperidino]-butyl]-4-hydroxyimino-2-methyl-2,3,4,5-tetrahydropyrrolo[2,3-e][1,2]thiazine 1,1-dioxide], the “Anti α1 action (% of Control)” value was 45.8 % of Control in the assay on α1 receptors (test drug 10^−7 M) and 80.0 % of Control with α1 receptors (test drug 10^−8 M). In addition, the “Anti 5-HT action (% of Control)” value with serotonin-2 receptors (test drug 10^−6 M) is 30.2 % of Control; with serotonin-2 receptors (test drug 10^−7 M), 73.5 % of Control.
`CN1CCC(=NO)c2c(ccn2CCCCN2CCC(C(=O)c3ccc(F)cc3)CC2)S1(=O)=O` [Compound 29, 6-[4-[4-(4-fluorobenzoyl)piperidino]-butyl]-5-hydroxyimino-2-methyl-3,4,5,6-tetrahydro-2H-pyrrolo[2,3-f][1,2]thiazepine 1,1-dioxide]: the “Anti α1 action (% of Control)” value with α1 receptors (test drug 10^−7 M) is recorded as 33.4 % of Control; with α1 receptors (test drug 10^−8 M) it was 83.1 % of Control. Further, the results for the “Anti 5-HT action (% of Control)” value in the assay on serotonin-2 receptors (test drug 10^−6 M) and with serotonin-2 receptors (test drug 10^−7 M) were 32.5 % of Control and 79.0 % of Control, respectively.

The values above are taken from patent US6743913B2, “Pyrrolothiazine and pyrrolothiazepine compounds having serotonin-2 receptor antagonistic and α-1-blocking action” (Daiichi Suntory Pharma Co., Ltd., priority 1997, dated 2004).
